Experimental data published in PubChem BioAssay AID2060337 (Molecular Pharmacology Branch, DTP, NCI, 2025).
Where “and” joins values, the source holds several entries; their conditions need not be identical. Identical values can stand only once. Values belong to the compound of their own block, whether it stands above or below them.

System: 832693-133-R-J1-PDC multi-cell spheroids, viability
Experiment: Anticancer human tumor 832693-133-R-J1-PDC patient-derived head and neck squamous carcinoma cell line growth inhibition [IpAb]
Conditions: for viability, T/C: stronger effect = lower value
Source text: Combinatorial screen of targeted agents with ipatasertib and abemaciclib in multi-cell type tumor spheroids
A high-throughput screen of multi-cell type tumor spheroids was designed to identify active combinations of targeted small molecules and ipatasertib or abemaciclib. Complex spheroids include a stromal component modeled by human endothelial cells (HUVEC) and fibroblasts modeled by human mesenchymal stem cells (MSCs). The concentration ranges selected for each drug and investigational agent were based upon clinically achievable concentrations if the clinical Cmax of the agent was known.
Compounds. The drugs and investigational agents: ipatasertib (NSC767898), abemaciclib(NSC768073), selumetinib (NSC741078), trametinib (758246), adavosertib (NSC754352), everolimus (NSC733504), sapanisertib (NSC764658), vemurafenib (NSC761431), venetoclax (NSC766270), copanlisib (NSC809693), apelisib (NSC765974), palbociblib (NSC758247), vemurafenib (NSC761431), dabrafenib (NSC764134), ravoxertinib (NSC781343), BMS-387032 (NSC767048), sotorasib (NSC818433), talazoparib (NSC767125) and afursertib (NSC778305), were obtained from the National Cancer Institute (NCI) Developmental Therapeutics Program Chemical Repository. The FDA-approved anticancer drug set is available from the NCI Developmental Therapeutics Program. […] The stock solutions were prepared in dimethyl sulfoxide (DMSO, Sigma-Aldrich, St. Louis, MO, cat. D2650) at 800-fold the tested concentration and stored at -70 degrees C prior to their use. All drugs and investigational agents were tested over a range starting from a high concentration at or near the clinical Cmax and decreasing in half-log increments. If the clinical Cmax for an agent had not been determined, the highest concentration tested was 10 microM.
NCI60 Cell Culture. NCI60 cell lines were obtained from the NCI Developmental Therapeutics Program Tumor Repository. For each lot of cells, the Repository performed Applied Biosystems AmpFLSTR Identifiler testing with PCR amplification to confirm consistency with the published Identifier STR profile for each cell line. Cells were kept in continuous culture for no more than 20 passages. The optimal seeding densities for each of the cell lines at each time point assessed were determined prior to performing the concentration response studies. Briefly, the NCI60 human tumor lines were grown as monolayers in RPMI 1640 medium supplemented with 10% FBS and 2 mmol/L L-glutamine.
An additional 9 lines were from the NCI60 cell line panel including MDA-MB-231 breast carcinoma, MDA-MB-468 breast carcinoma, MCF7 breast carcinoma, Hs578T breast carcinoma, MALME-3M melanoma, SK-MEL-2 melanoma, SK-OV-3 ovarian carcinoma, DU-145 prostate carcinoma, PC-3 prostate carcinoma, all cell lines along with major genetic alterations are listed on Table 2. Pooled donor human umbilical vein endothelial cells (HUVEC, Lonza, cat. CC-2519) and human mesenchymal stem cells (hMSC, Lonza, cat. PT-2501) were purchased from Lonza (Walkersville, MD).
PDMR cell lines were grown in complete medium (DC medium): Dulbecco's modified Eagle's medium (DMEM)/F12 supplemented with 5% fetal bovine serum (FBS), 2 mM L-glutamine, 100 U/mL penicillin and 100 µg/ml streptomycin, 0.4 µg/ml hydrocortisone, 10 ng/ml epidermal growth factor (EGF) recombinant human protein, 24 µg/mL adenine, and 0.1 mg/mL primocin. During culture from frozen stock vials, PDMR cells were cultured in the same medium containing 10 µM Y-27632 (see Table 3). The PDCs were cultured in complete DMEM/F12 media without 10 microM Y-27632 dihydrochloride for at least two passages prior to the screen. The pooled donor HUVEC and hMSC were cultured in endothelial cell growth medium 2 (PromoCell, Heidelberg, Germany, cat. C-22011) and mesenchymal stem cell growth medium 2 (PromoCell, cat. C-28009), respectively. For all experiments, HUVEC and hMSC were used at passages </=5.
[…]
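Further: spheroids exposed to the drugs for one week before the viability readout.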
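Wherever viability, T/C is given: 100% = DMSO vehicle control wells.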

IC50 (curve of compound): 570 nM and 626 nM
SMILES: CC(C)(C)c1cnc(CSc2cnc(NC(=O)C3CCNCC3)s2)o1
viability, T/C (compound 0.00949 µM): 115% and 100%
viability, T/C (compound 0.03 µM): 127%
viability, T/C (compound 0.0949 µM): 143% and 156%
viability, T/C (compound 0.3 µM): 111% and 164%
viability, T/C (compound 0.949 µM): 1.31% and 0.89%
viability, T/C (compound 3 µM): 1.26% and 1.3%

SMILES: Cn1ncc(Cl)c1-c1cc(C(=O)NC(CN)Cc2cccc(F)c2)sc1Cl (centres undefined) + CCN1CCN(Cc2ccc(Nc3ncc(F)c(-c4cc(F)c5nc(C)n(C(C)C)c5c4)n3)nc2)CC1
IC50 (curve of first compound, second compound 0.01 µM): 4490 nM
IC50 (curve of first compound, second compound 0.0316 µM): 3210 nM
IC50 (curve of first compound, second compound 0.1 µM): < 31.6 nM
IC50 (curve of first compound, second compound 0.316 µM): < 31.6 nM
IC50 (curve of first compound, second compound 1 µM): < 31.6 nM
viability, T/C (second compound 0.01 µM, first compound 0.0316 µM): 94.4%
viability, T/C (second compound 0.01 µM, first compound 0.1 µM): 91.1%
viability, T/C (second compound 0.01 µM, first compound 0.316 µM): 67.5%
viability, T/C (second compound 0.01 µM, first compound 1 µM): 50.2%
viability, T/C (second compound 0.01 µM, first compound 3.16 µM): 73.7%
viability, T/C (second compound 0.01 µM, first compound 10 µM): 0.29%
viability, T/C (second compound 0.0316 µM, first compound 0.0316 µM): 79.4%
viability, T/C (second compound 0.0316 µM, first compound 0.1 µM): 70.2%
viability, T/C (second compound 0.0316 µM, first compound 0.316 µM): 61.3%
viability, T/C (second compound 0.0316 µM, first compound 1 µM): 46.6%
viability, T/C (second compound 0.0316 µM, first compound 3.16 µM): 59.9%
viability, T/C (second compound 0.0316 µM, first compound 10 µM): 0.25%
viability, T/C (second compound 0.1 µM, first compound 0.0316 µM): 64.4%
viability, T/C (second compound 0.1 µM, first compound 0.1 µM): 50%
viability, T/C (second compound 0.1 µM, first compound 0.316 µM): 43.4%
viability, T/C (second compound 0.1 µM, first compound 1 µM): 37.8%
viability, T/C (second compound 0.1 µM, first compound 3.16 µM): 49.9%
viability, T/C (second compound 0.1 µM, first compound 10 µM): 0.21%
viability, T/C (second compound 0.316 µM, first compound 0.0316 µM): 53.2%
viability, T/C (second compound 0.316 µM, first compound 0.1 µM): 38.4%
viability, T/C (second compound 0.316 µM, first compound 0.316 µM): 31.6%
viability, T/C (second compound 0.316 µM, first compound 1 µM): 33.3%
viability, T/C (second compound 0.316 µM, first compound 3.16 µM): 32.1%
viability, T/C (second compound 0.316 µM, first compound 10 µM): 0.19%
viability, T/C (second compound 1 µM, first compound 0.0316 µM): 47.6%
viability, T/C (second compound 1 µM, first compound 0.1 µM): 37.1%
viability, T/C (second compound 1 µM, first compound 0.316 µM): 33.2%
viability, T/C (second compound 1 µM, first compound 1 µM): 32.8%
viability, T/C (second compound 1 µM, first compound 3.16 µM): 36%
viability, T/C (second compound 1 µM, first compound 10 µM): 0.28%

IC50 (curve of compound): 208 nM and 221 nM
SMILES: C=CCn1c(=O)c2cnc(Nc3ccc(N4CCN(C)CC4)cc3)nc2n1-c1cccc(C(C)(C)O)n1
viability, T/C (compound 0.0316 µM): 94% and 91.3%
viability, T/C (compound 0.1 µM): 79.8% and 71.9%
viability, T/C (compound 0.316 µM): 32.5% and 35.4%
viability, T/C (compound 1 µM): 27% and 31.5%
viability, T/C (compound 3.16 µM): 25.9% and 28.6%
viability, T/C (compound 10 µM): 12.5% and 11.7%
